# Reference: PubChem BioAssay (NCI)
# Several values for one entry are separate records, joined by “and”; a condition that tells them apart may be missing. Equal values may be shown once.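 Compound exposure: 48 hours, 5 concentrations, 96-well plates. At the GI50, growth is halved. The concentration for full growth arrest is given as TGI.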
# Legend:
# Test in all cases: NCI anticancer screen, dose series, 48 h
# [1] = tested on: CCRF-CEM leukemia
# [2] = tested on: HOP-92 NSCLC
# [3] = tested on: HS 578T breast
# [4] = tested on: MOLT-4 leukemia
# [5] = tested on: NCI/ADR-RES ovarian
# [6] = tested on: SK-MEL-5 melanoma
# [7] = tested on: SN12C renal
# [8] = tested on: SNB-19 CNS
# [9] = tested on: T-47D breast
# [10] = tested on: U251 CNS
Compound,TGI [1],TGI [2],TGI [3],TGI [4],TGI [5],TGI [6],TGI [7],TGI [8],TGI [9],TGI [10],GI50 [2],GI50 [3],GI50 [4],GI50 [5],GI50 [6],GI50 [7],GI50 [8],GI50 [9],GI50 [10]
Cc1ccc2c(=O)cc(-c3ccc(-c4ccccc4)s3)[nH]c2n1,> 100 µM,> 85.6 µM,> 72.6 µM,> 78.9 µM,> 100 µM,> 39.7 µM,> 100 µM,> 100 µM,> 100 µM,> 100 µM,–,–,–,–,–,–,–,–,–
COc1cc([C@@H]2c3cc(O)c(OC)cc3C=C(C(N)=O)[C@H]2C(N)=O)ccc1O,> 100 µM,> 100 µM,> 100 µM,> 100 µM,> 100 µM,> 100 µM,> 100 µM,> 100 µM,> 100 µM,> 100 µM,–,–,–,–,–,–,–,–,–
CC(C)[C@@H]1ON1C(C)c1ccccc1 (stereo partly specified),> 100 µM,> 100 µM,> 100 µM,> 100 µM,> 100 µM,> 100 µM,> 100 µM,> 100 µM,> 100 µM,> 100 µM,–,–,–,–,–,–,–,–,–
OC(c1ccc(-c2ccccc2)cc1)C(F)(F)c1nc2ccccc2o1 (stereo unspecified),> 100 µM,> 86.3 µM,70.2 µM,> 100 µM,> 100 µM,> 100 µM,> 100 µM,> 100 µM,> 100 µM,> 100 µM,–,–,–,–,–,–,–,–,–
COc1nc(N)c(N=CC(OC(C)=O)C(OC(C)=O)C(COC(C)=O)OC(C)=O)c(=O)n1C (stereo unspecified),> 100 µM,> 100 µM,> 100 µM,> 100 µM,> 100 µM,> 100 µM,> 100 µM,> 100 µM,> 100 µM,> 100 µM,–,–,–,–,–,–,–,–,–
CC1OC(O[C@H]2/C=C/C=C/C=C/C=C/C=C/C=C/C=C/[C@H](C)[C@@H](O)[C@@H](C)[C@H](C)OC(=O)CC(O)CC(O)CCC(O)C(O)CC(O)C[C@]3(O)C[C@H](O)C(C(=O)O)C(C2)O3)C(O)[C@H](N)C1O (stereo partly specified),> 100 µM,15.6 µM,8.25 µM,6.02 µM,5.16 µM,12.8 µM,2.99 µM,6.52 µM,90.3 µM,3.79 µM,3.16 µM,2.39 µM,2.9 µM,2.1 µM,3.51 µM,1.58 µM,2.57 µM,16.4 µM,1.88 µM
CCN(c1cccc(NC(=S)Nc2ccccc2N(CC)c2cc(-c3ccccc3)no2)c1)c1cc(-c2ccccc2)no1,> 100 µM,> 100 µM,> 100 µM,> 100 µM,> 100 µM,> 100 µM,> 100 µM,> 100 µM,> 100 µM,> 100 µM,–,–,–,–,–,–,–,–,–
COC12c3ccccc3-c3ccccc3C1[C@H]1C(=O)OC(=O)[C@H]12 (stereo partly specified),> 10 µM,> 10 µM,> 10 µM,> 10 µM,> 10 µM,> 10 µM,> 10 µM,> 10 µM,> 10 µM,> 10 µM,–,–,–,–,–,–,–,–,–
COc1ccc(-n2cnc3c(NC(CCSC)C(=O)O)ncnc32)cc1 (stereo unspecified),> 100 µM,> 100 µM,> 100 µM,> 100 µM,> 100 µM,> 100 µM,> 100 µM,> 100 µM,> 100 µM,> 100 µM,–,–,–,–,–,–,–,–,–
Cc1ccc(N=Nc2c(O)c(C(=O)Nc3ccccc3)cc3ccccc23)c([N+](=O)[O-])c1,> 100 µM,> 100 µM,> 100 µM,> 100 µM,> 100 µM,> 100 µM,> 100 µM,> 100 µM,> 100 µM,> 100 µM,–,–,–,–,–,–,–,–,–
C/C1=C\[C@@H](O)C(=O)/C=C/C=C\c2csc(n2)[C@@H](C)NC(=O)C[C@@]2(CC1)S(=O)SC(=O)[C@]2(C)O (stereo partly specified),> 100 µM,0.011 µM,0.435 µM,–,0.11 µM,0.0435 µM and 0.0168 µM,0.0882 µM and 0.0192 µM,0.511 µM and 2.87 µM,0.0217 µM,0.209 µM and 0.267 µM,–,–,> 100 µM,–,–,–,1.15 µM,–,0.0122 µM
FC(F)(F)c1ccc2nc(Sc3ccccn3)cnc2c1,> 100 µM,> 100 µM,> 100 µM,> 100 µM,> 100 µM,66.2 µM,> 100 µM,86.8 µM,> 100 µM,42.3 µM,–,–,–,–,–,–,–,–,–
COc1cc(C(c2ccc3c(c2)OCO3)N2C(=O)CCC2C(=O)O)cc(OC)c1OC (stereo unspecified),> 100 µM,> 100 µM,> 100 µM,> 100 µM,> 100 µM,> 100 µM,> 100 µM,> 100 µM,> 100 µM,> 100 µM,–,–,–,–,–,–,–,–,–
COC(=O)c1c(OC(C)=O)ccc2c1c1c(OC(C)=O)c3ccccc3c(OC(C)=O)c1n2Cc1ccccc1,45 µM,3.27 µM,> 50 µM,> 50 µM,46.6 µM,9.47 µM,> 50 µM,> 50 µM,10.5 µM,17.3 µM,–,–,–,–,–,–,–,–,–
COc1ccc2oc(=N)c(C(=O)Nc3ccccn3)cc2c1,> 100 µM,> 100 µM,> 100 µM,> 100 µM,> 100 µM,> 100 µM,> 100 µM,> 100 µM,> 100 µM,> 100 µM,–,–,–,–,–,–,–,–,–
Cc1ccc(/C=C2\CCCC(CN3CCCCC3)C2=O)cc1 (stereo unspecified),3.03 µM,4.04 µM,6.59 µM,> 100 µM,42.5 µM,17.4 µM,8.4 µM,29.6 µM,3.41 µM,27.3 µM,–,–,–,–,–,–,–,–,–
N#C/C(=C\c1c[nH]c2ccccc12)C(=O)c1ccc(O)c(O)c1,> 36.2 µM,99.2 µM,> 100 µM,98.1 µM,70.1 µM,> 100 µM,> 91.5 µM,98.1 µM,> 100 µM,> 100 µM,–,–,–,–,–,–,–,–,–
CC[C@@H](/C=C\CCC(=O)C[C@H](O)CCC=C(C)C)O[Si](C(C)C)(C(C)C)C(C)C,> 100 µM,> 100 µM,> 100 µM,> 100 µM,> 100 µM,> 100 µM,> 100 µM,> 100 µM,> 100 µM,> 100 µM,–,–,–,–,–,–,–,–,–
c1ccc(CSCCc2ccncc2)cc1,> 100 µM,> 100 µM,> 100 µM,> 100 µM,> 100 µM,> 100 µM,> 100 µM,> 100 µM,> 100 µM,> 100 µM,–,–,–,–,–,–,–,–,–
CCOP(=O)(OCC)C(C)(CC)NC (stereo unspecified),77.1 µM,> 100 µM,> 100 µM,> 100 µM,> 100 µM,> 100 µM,> 100 µM,> 100 µM,> 100 µM,> 100 µM,–,–,–,–,–,–,–,–,–
c1ccc2c3c([nH]c2c1)C1CCCN1CC3 (stereo unspecified),> 10 µM,> 10 µM,> 10 µM,> 10 µM,> 10 µM,> 10 µM,> 10 µM,> 10 µM,> 10 µM,> 10 µM,–,–,–,–,–,–,–,–,–
CC1=NN(C(=O)CSc2nc3ccc(I)cc3c(=O)n2Cc2ccccc2)C(=O)C1,> 100 µM,70.7 µM,35.8 µM,67.8 µM,58.3 µM,55.2 µM,> 100 µM,> 100 µM,60.3 µM,67.4 µM,–,–,–,–,–,–,–,–,–
CCC(c1c[nH]c2ccc(Br)cc12)c1c[nH]c2ccc(Br)cc12,13.7 µM,8.3 µM,27 µM,4.56 µM,13.3 µM,26.8 µM,15.4 µM,21.4 µM,7.97 µM,13.3 µM,–,–,–,–,–,–,–,–,–
O=[As](O)(O)c1ccc(N=Nc2ccc(O)cc2)cc1,> 100 µM,> 100 µM,> 100 µM,17.1 µM,> 100 µM,> 100 µM,> 100 µM,> 100 µM,> 100 µM,> 100 µM,–,–,–,–,–,–,–,–,–
Brc1ccc(-c2cn3ccncc3n2)cc1,> 100 µM,> 100 µM,> 100 µM,> 100 µM,> 100 µM,> 100 µM,> 100 µM,> 100 µM,> 100 µM,> 100 µM,–,–,–,–,–,–,–,–,–
O=c1onc2c3ccccc3ncn12,> 100 µM,> 100 µM,> 100 µM,> 100 µM,> 100 µM,> 100 µM,> 100 µM,> 100 µM,> 100 µM,> 100 µM,–,–,–,–,–,–,–,–,–
C[C@H]1C=C2[C@@H]3CC(C)(C(=O)O)CC[C@]3(C)CC[C@]2(C)[C@]2(C)CC[C@H]3C(C)(C)[C@@H](OC(=O)c4cccc5c(=O)c6ccccc6[nH]c45)CC[C@]3(C)[C@@H]12 (stereo partly specified),> 100 µM,> 100 µM,> 100 µM,> 100 µM,> 100 µM,> 100 µM,> 100 µM,> 100 µM,87.5 µM,> 100 µM,–,–,–,–,–,–,–,–,–
OC1(c2ccccc2)CSC2=Nc3ccccc3C3CCN1N23 (stereo unspecified),94.1 µM,69.6 µM,> 100 µM,80.9 µM,63.9 µM,35.9 µM,40.1 µM,37.4 µM,47.5 µM,28.1 µM,–,–,–,–,–,–,–,–,–
COC(=O)C1=C(OC(=O)c2ccccc2)C(C(=O)OC)[C@]2(O)[C@@H](C(=O)OC)[C@H]1C[C@@H](c1ccccc1)[C@@H]2C(=O)OC (stereo partly specified),10.6 µM,27.3 µM,72.2 µM,23 µM,14.1 µM,17.4 µM,43.2 µM,41.7 µM,33.8 µM,20.8 µM,–,–,–,–,–,–,–,–,–
C/C(=C/CC[C@]1(CO)CC[C@]2(CO)[C@H](CC[C@@H]3[C@@]4(C)CC[C@H](OC5OCC(O)C(O)C5OC5OC(CO)C(O)C(O)C5O)C(C)(C)[C@@H]4CC[C@]32C)[C@H]1O)CO (stereo partly specified),> 100 µM,> 100 µM,> 100 µM,> 100 µM,> 100 µM,> 100 µM,> 100 µM,> 100 µM,> 100 µM,> 100 µM,–,–,–,–,–,–,–,–,–
